These results are taken from US12371668B2, “Methods for tissue generation” (priority 2018, dated 2025).

Series [1] has as its system ventricular tissues derived from BJ1D iPSC-CM. Briefly: Intracellular action potential recordings in ventricular Biowires. The class given is cell-based, human. The settings on record: for responses on action potentials: ventricular Biowires, FIGS. 12E-12N. As to the method: Tissues were perfused with 35-37° C. […] They were paced at twice the ET. The action potential was recorded with high impedance microelectrodes (60-90 MΩ) filled with 3M KCl, connected to an Axopatch 200B amplifier (Axon Instruments). Recordings were performed in current clamp mode at 2 kHz and signals were analyzed using the Clampfit 10 Data Analysis Module of the pCLAMP™ 10 Electrophysiology Data Acquisition & Analysis Software (Axon Instruments). The movement of the tissue was minimized by perfusing with 10 μM blebbistatin (Toronto Research Chemicals) for 20 min. The effect of various compounds on the action potential was assessed by preparing an appropriate dilution of the compound in Krebs's Solution or DMEM.

Series [2] relates to atrial tissues derived from Hes3 hESC-CM. Briefly: Intracellular action potential recordings in atrial Biowires. The class given is cell-based, human. On the procedure:
Tissues were perfused with 35-37° C. Kreb's Solution (118 mM NaCl, 4.2 mM KCl, 1.2 mM KH2PO4, 1.2 mM MgSO4, 1.8 mM CaCl2, 23 mM NaHCO3, 2 mM Na-pyruvate and 20 mM glucose, equilibrated with 95% 02 and 5% CO2, pH 7.4) or DMEM medium. They were paced at twice the ET. The action potential was recorded with high impedance microelectrodes (60-90 MΩ) filled with 3M KCl, connected to an Axopatch 200B amplifier (Axon Instruments). Recordings were performed in current clamp mode at 2 kHz and signals were analyzed using the Clampfit 10 Data Analysis Module of the pCLAMP™ 10 Electrophysiology Data Acquisition & Analysis Software (Axon Instruments). The movement of the tissue was minimized by perfusing with 10 μM blebbistatin (Toronto Research Chemicals) for 20 min. The effect of various compounds on the action potential was assessed by preparing an appropriate dilution of the compound in Krebs's Solution or DMEM.

In series [3] the test system is ventricular Biowires created from BJ1D iPSCs and HES3 ESCs. Briefly: Dynamic force recordings of ventricular Biowires under stimulation. The class given is cell-based, human. The settings on record: FIG. 2G. On the procedure:
Blue channel image sequences were analyzed using a custom MatLab code that traced the maximum deflection of the POMaC wire. Average tissue width (diameter) and width of the tissue on the polymer wire (Tw) were measured from still frames of the 4× bright field video of the tissue in the relaxed position (FIGS. 8C-8D). Total (at peak contraction) and passive (at rest) POMaC wire deflections were converted to force measurements (μN) using the force calibration curves described in the previous section. The final readouts for the total and passive tension of tissue were then interpolated according to the Tw and custom tip sizes. The active force was calculated as the difference between the total and passive tension (FIG. 2C). The custom MatLab code was used to calculate the passive tension, active force, contraction and relaxation duration, and upstroke and relaxation velocity. To investigate the contractile effects of various compounds on the tissues, a custom testing chamber was fabricated in a 6-well plate modified with an extraction/injection port connected to a 5 mL syringe, a pair of carbon electrodes (set 1 cm apart) with platinum wire lead attachments and a custom 3D-printed holder for a polystyrene chip with a single microwell. Prior to testing, the tissue was transferred to the custom testing chamber and placed in the environmental chamber on the microscope stage (37° C., 5% CO2), where it was allowed to equilibrate for 30 min in the presence of electrical field stimulation (1 Hz, at ET). A bright field video of the tissue was taken before testing to obtain all the necessary measurements for the force calculation. For testing, the voltage was increased to 10% above the ET, and videos were taken of one polymer wire (10× objective). Prior to the test compound injection, media were extracted and injected through the port twice at 10 min intervals to pre-condition the tissue to the testing process. Compounds were diluted in media at concentrations 1000-fold higher than the desired final concentration. For compound testing, ⅓^rd of the media was extracted from the chamber, the compound was added to the extracted media and then injected back into the testing chamber. After 10-15 min, videos in the blue channel were recorded. The procedure was repeated for sequential drug dosages. The videos were analyzed using the custom MatLab software, as indicated for the weekly FFR assessments.

Series [4] in a line: Long-term absorption test, Biowire chips. It counts as physicochemical. On the procedure:
(§1) For the long-term absorption test, polystyrene strips containing microwells and POMaC wires, with and without the adhesive, were cut into chips (9 mm×9 mm×1 mm) containing a single microwell. Chips of the same geometry were also made using PDMS. The polystyrene and PDMS chips were incubated in 1 mL Rhodamine B (1 μM; Sigma-Aldrich) in a 24 well-plate at 37° C. for up to 1 wk. Tissue culture treated 24 well-plates were incubated with the dye in the absence of any chips as a control. At 6 h, 24 h, 48 h, and 1 wk, 100 μL of the dye solution was transferred to a 96-well plate and the fluorescence was read using a SpectraMax i3 plate reader (Molecular Devices; λex=540 nm, λem=625 nm), (n=3). Additionally, fluorescent images of the chips were taken in the absence of treatment, after 1 wk of dye incubation, and after 2 h of washing following 1 wk of dye incubation.

Series [5] is described as follows: Long-term absorption test, PDMS chips. It counts as physicochemical. The following applies: 1 wk incubation then washout for 2 hours. As to the method: as §1
Series [6] relates to atrial region of heteropolar Biowires (Hes3 hESC). Briefly: Optical mapping of impulse propagation in atrioventricular Biowires, atrial region. It counts as cell-based, human. The following applies: 1 μM. On the procedure:
(§2) To generate atrioventricular tissues, dissociated atrial cardiac cells and cardiac fibroblasts were mixed in a 10:1.5 cell number ratio. Dissociated ventricular cells and cardiac fibroblasts were mixed in a 10:1.5 cell number ratio. The mixed cells were pelleted and resuspended at a concentration of 5.75×10^7 cells/mL in collagen hydrogel. When seeding, cell-hydrogel mixture containing atrial CMs (1 μL) were seeded on one side of the Biowire II well first, followed by mixture containing ventricular CMs (1 μL) seeded on the other side. After seeding, tissues were cultured for 7 days to allow for remodeling and compaction around the POMaC wires.
(§3) For atrioventricular preparations, electrical stimulation started at 2 Hz on day 7 and the protocol of 1 Hz weekly step-up was used until the frequency reached 6 Hz. If average MCR exceeded 4 Hz after one week of 2 Hz stimulation, or exceeded 5 Hz after one week of 3 Hz stimulation, stimulation frequency could be changed directly from 2 Hz to 4 Hz or 3 Hz to 5 Hz to accelerate the process. […]
(§4) Tissues were perfused with 5 μM voltage sensitive dye, Di-4-ANEPPS (Invitrogen), in Kreb's Solution at 35-37° C. for 20 min. Dye fluorescence was recorded on an MVX-10 Olympus fluorescence microscope (Olympus Corporation) equipped with a charged coupled device (CCD) (Cascade 128, Photometrics). […]

For series [7], the system named is ventricular portions of heteropolar Biowires (Hes3 hESC). Briefly: Optical mapping of impulse propagation in atrioventricular Biowires, ventricular region. The class given is cell-based, human. The settings on record: 1 μM, listed as Ranolazine. On the procedure: as §2, §3, §4
For series [8], the system named is atrial end of heteropolar atrio-ventricular Biowires (Hes3 hESC). In words: Calcium transients in atrioventricular Biowires, atrial end. The class given is cell-based, human. On the procedure:
as §2, with “wires. […]” for “wires.”
To investigate the relative changes of intracellular calcium concentration, tissues were incubated with the calcium dye Fluo-4 NW (Thermo Fisher) for 30 min at 37° C. prior to testing. To obtain both calcium transients and contractility readouts consecutively and synchronously, the testing process was performed using both green light channel (λex=490 nm, λem=525 nm) and/or blue channel at 10× or 4× magnification. […] The ratio of peak tissue fluorescence intensity to baseline intensity, dF/F0 was calculated to determine the relative changes in intracellular calcium in the presence of the compound. For the consecutive force and calcium transient readouts, contractile measurements were extracted from the blue channel as described before. […]

Series [9] deals with atrial tissue derived from Hes3 hESC-CM. In words: Force and calcium transient measurement in atrial Biowires. It counts as cell-based, human. The following applies: atrial preparations, increasing concentrations. On the procedure:
To investigate the contractile effects of various compounds on the tissues, a custom testing chamber was fabricated in a 6-well plate modified with an extraction/injection port connected to a 5 mL syringe, a pair of carbon electrodes (set 1 cm apart) with platinum wire lead attachments and a custom 3D-printed holder for a polystyrene chip with a single microwell. Prior to testing, the tissue was transferred to the custom testing chamber and placed in the environmental chamber on the microscope stage (37° C., 5% CO2), where it was allowed to equilibrate for 30 min in the presence of electrical field stimulation (1 Hz, at ET). […] After 10-15 min, videos in the blue channel were recorded. […] The videos were analyzed using the custom MatLab software, as indicated for the weekly FFR assessments.
(§5) To investigate the relative changes of intracellular calcium concentration, tissues were incubated with the calcium dye Fluo-4 NW (Thermo Fisher) for 30 min at 37° C. prior to testing. […] The ratio of peak tissue fluorescence intensity to baseline intensity, dF/F0 was calculated to determine the relative changes in intracellular calcium in the presence of the compound. For the consecutive force and calcium transient readouts, contractile measurements were extracted from the blue channel as described before. […]

For series [10], the system named is ventricular tissue derived from BJ1D iPSC-CM. Briefly: Force and calcium transient measurement in ventricular Biowires. It counts as cell-based, human. On the procedure: To investigate the contractile effects of various compounds on the tissues, a custom testing chamber was fabricated in a 6-well plate modified with an extraction/injection port connected to a 5 mL syringe, a pair of carbon electrodes (set 1 cm apart) with platinum wire lead attachments and a custom 3D-printed holder for a polystyrene chip with a single microwell. Prior to testing, the tissue was transferred to the custom testing chamber and placed in the environmental chamber on the microscope stage (37° C., 5% CO2), where it was allowed to equilibrate for 30 min in the presence of electrical field stimulation (1 Hz, at ET). A bright field video of the tissue was taken before testing to obtain all the necessary measurements for the force calculation. For testing, the voltage was increased to 10% above the ET, and videos were taken of one polymer wire (10× objective). Prior to the test compound injection, media were extracted and injected through the port twice at 10 min intervals to pre-condition the tissue to the testing process. […] For compound testing, ⅓^rd of the media was extracted from the chamber, the compound was added to the extracted media and then injected back into the testing chamber. After 10-15 min, videos in the blue channel were recorded. The procedure was repeated for sequential drug dosages. The videos were analyzed using the custom MatLab software, as indicated for the weekly FFR assessments.
as §5, with “before. For the synchronous readouts, the contractile measurements were extracted from the green channel videos using modified version of the ImageJ SpotTracker plugin.” for “before.”

[11] abbreviates: atrial Biowires, low doses (25 μM).

“Also recorded” adds a separate entry of the source.

For `Nc1ccncc1` [4AP, 4-aminopyridine], in series [1] (ventricular tissues, higher doses), the APD result was “did prolong APD”. The “action potential amplitudes and APD30” value in series [1] (ventricular tissues, low doses (25 μM)) is listed as “without measurable effects”. Moreover, in series [2] (setting [11]), the APD30 entry was “prolonged” and the action potential amplitudes entry is “increased”. Further, the AP duration result in series [2] (atrial tissues, very low concentrations (<50 μM)) is “prolonged”.

As to `Cc1cccc(CCN2CCC(C(=O)c3ccc(NS(C)(=O)=O)cc3)CC2)n1` [E-4031], the “changes in the active forces and beat patterns” value (shortened to “changes”) in series [3] is “promotes spontaneous irregular beating patterns consistent with arrhythmias”.

Turning to `CCN(CC)c1ccc2c(-c3ccccc3C(=O)O)c3ccc(=[N+](CC)CC)cc-3oc2c1.[Cl-]` [Rhodamine B], in series [4] (1 μM dye, 37° C., incubation 24 hours and longer), the “fluorescence levels in solution versus PDMS chips” value is listed as “remained higher than in PDMS chips”. The figures for the “fluorescence in chip after washout” value in series [4] (1 wk incubation then washout for 2 hours) and in series [5] were “undetectable” and “remained widespread”, respectively. Also, in series [4] (after 6 hours), the “levels versus tissue plastic well controls” value was “not significantly different”.

With `C[N+](C)(C)CCOC(N)=O` [carbachol], the entries for the “APDs (action potential durations)” value in [1] (ventricular tissues) and in series [2] (atrial Biowires) were “without affecting these parameters” and “abbreviated APDs; also recorded: shortened atrial APDs only”, respectively.

Turning to `COc1ccc([C@@H]2Sc3ccccc3N(CCN(C)C)C(=O)[C@@H]2OC(C)=O)cc1` [diltiazem], the “changes” value in series [3] is “produces negative inotropic effects”.

Take `CN(CCOc1ccc(NS(C)(=O)=O)cc1)CCc1ccc(NS(C)(=O)=O)cc1` [dofetilide]: in series [1], the “responses on action potentials” value is reported as “predictable responses”.

`CC(C)NCC(O)c1ccc(O)c(O)c1` (centres unmarked) [isoproterenol]: in series [3], the “changes” value is listed as “increases contractility”.

Take `CCN(CC)CC(=O)Nc1c(C)cccc1C` [lidocaine]: the “changes” value in series [3] is “inhibits tissue electrical excitability”.

As for `Cc1[nH]c(=O)c(C#N)cc1-c1ccncc1` [milrinone], the “changes” value in series [3] is “enhances contractility”.

As for `COc1ccccc1OCC(O)CN1CCN(CC(=O)Nc2c(C)cccc2C)CC1` (centres unmarked) [ranolazine], the conduction velocity entry was “significantly slowed down” in [6], “decreased conduction velocity” in series [6] (listed as Ranolazine) and “without affecting” in series [7].

Turning to `NCCc1c[nH]c2ccc(O)cc12` [serotonin], the “Ca2+ transients” value in series [8] is given as “increased; also recorded: positive inotropic effect”.

On to `C/C=C(/C)C(=O)O[C@H]1C(C)=C2[C@H]([C@@H]1OC(=O)CCCCCCC)[C@@](C)(OC(C)=O)C[C@H](OC(=O)CCC)[C@@]1(O)[C@H]2OC(=O)[C@@]1(C)O` [thapsigargin], for which the “force and Ca′ transient amplitudes” value in [9] is “dose-dependently decreased”; in series [10] (ventricular preparations, increasing concentrations), “dose-dependently decreased”. In addition, the “potency in ventricular versus atrial preparations” value in series [10] (decrease of force and Ca′ transient amplitudes) is “higher potency in ventricle”. The “time-to-peak and decay rates of both force and Ca2+” value in series [10] (ventricular Biowires, low pacing rates) is “prolonged”.

On to `COc1ccc(CCN(C)CCCC(C#N)(c2ccc(OC)c(OC)c2)C(C)C)cc1OC` (centres unmarked) [verapamil], for which the “responses on action potentials” value in [1] is listed as “predictable responses”.
